Results as given in US11053234B2 (GlaxoSmithKline Intellectual Property Development Limited, priority 2016, dated 2021).
Where a name gives a salt, the structure may show the parent alone.

Target: T1, haematopoietic prostaglandin D synthase (H-PGDS) (Homo sapiens, UniProt O60760)
T1 construct: Full length human H-PGDS cDNA (Invitrogen Ultimate ORF 10H13026) was amplified by PCR; 6-His (N); TEV protease cleavage site (N); made in house; host or cells: E. coli BL21 (DE3*), vector pET22b+
Experiment: H-PGDS RapidFire high throughput mass spectrometry assay (conversion of PGH2 to PGD2)
Assay type: biochemical
Conditions: 10 nM H-PGDS, PGH2 formed in situ by COX-2 from arachidonic acid; for IC50: read-out: Potency Range (mean pIC50) (converted)
Method in brief: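 RapidFire SPE–MS read-out calculated percent conversion from relative PGD2 and PGF2α (substrate surrogate) levels. Recombinant full-length human H-PGDS (His-tag, E. coli) turned over PGH2, produced in situ at ˜10 μM by human COX-2 (FLAG-tag, Sf9 cells) acting on arachidonic acid.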

T1 sequence (O60760 whole entry): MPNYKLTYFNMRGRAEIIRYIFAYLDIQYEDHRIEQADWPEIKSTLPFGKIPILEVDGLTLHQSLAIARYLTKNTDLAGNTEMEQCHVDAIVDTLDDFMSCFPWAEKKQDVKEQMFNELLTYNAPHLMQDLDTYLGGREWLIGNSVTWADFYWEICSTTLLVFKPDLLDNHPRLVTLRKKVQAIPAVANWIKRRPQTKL

| SMILES | IC50 [nM] | Potency Range (mean pIC50) |
| --- | --- | --- |
| CC(N1CCC(NC(=O)N2CC(Oc3cccc4scnc34)C2)CC1)C(F)(F)F (racemic) [Example 86, Racemic 3-(Benzo[d]thiazol-4-yloxy)-N-(1-(1,1,1-trifluoropropan-2-yl)piperidin-4-yl)azetidine-1-carboxamide] | 10 to 79.4 |  |
| COc1ccc(F)cc1O[C@H]1C[C@H](C(=O)NC2CC3(C2)CN(c2cc(C#N)ccn2)C3)C1 [Example 148, (trans)-N-(2-(4-Cyanopyridin-2-yl)-2-azaspiro[3.3]heptan-6-yl)-3-(5-fluoro-2-methoxyphenoxy)cyclobutanecarboxamide] | 10 to 79.4 |  |
| O=C(NC1CCN(c2ncc(F)cn2)CC1)[C@H]1C[C@H](Oc2cc(F)cc3scnc23)C1 [Example 117, (trans)-3-((6-Fluorobenzo[d]thiazol-4-yl)oxy)-N-(1-(5-fluoropyrimidin-2-yl)piperidin-4-yl)cyclobutanecarboxamide] | 10 to 79.4 |  |
| COc1ccc(F)cc1O[C@H]1C[C@H](C(=O)N[C@H]2CC[C@H](C(C)(C)O)CC2)C1 [Example 168, (trans)-3-(5-Fluoro-2-methoxyphenoxy)-N-((trans)-4-(2-hydroxypropan-2-yl)cyclohexyl)cyclobutanecarboxamide] | 10 to 79.4 |  |
| O=C(NC1CN(c2ncccn2)C1)N1CC(Oc2cccc3scnc23)C1 [Example 107, 3-(Benzo[d]thiazol-4-yloxy)-N-(1-(pyrimidin-2-yl)azetidin-3-yl)azetidine-1-carboxamide] | 10 to 79.4 |  |
| O=C(Nc1ccncc1)N1CC(Oc2cccc3scnc23)C1 [Example 63, 3-(Benzo[d]thiazol-4-yloxy)-N-(pyridin-4-yl)azetidine-1-carboxamide] | 100 to 1000 |  |
| O=C(NC1CN(c2ncc(F)cn2)C1)[C@H]1C[C@H](Oc2cc(F)ccc2OC(F)F)C1 [Example 8, (trans)-3-(2-(Difluoromethoxy)-5-fluorophenoxy)-N-(1-(5-fluoropyrimidin-2-yl)azetidin-3-yl)cyclobutanecarboxamide] | 10 to 79.4 |  |
| O=C(N[C@H]1CC[C@H](OCC(O)C2CC2)CC1)[C@H]1C[C@H](Oc2cc(F)ccc2OC(F)F)C1 (mixture of isomers) [Example 9, Racemic (trans)-N-((trans)-4-(2-Cyclopropyl-2-hydroxyethoxy)cyclohexyl)-3-(2-(difluoromethoxy)-5-fluorophenoxy)cyclobutanecarboxamide] | 10 to 79.4 |  |
| O=C(Nc1ncc(CO)s1)[C@H]1C[C@H](Oc2cc(F)ccc2OC(F)F)C1 [Example 12, (trans)-3-(2-(Difluoromethoxy)-5-fluorophenoxy)-N-(5-(hydroxymethyl)thiazol-2-yl)cyclobutanecarboxamide] | 10 to 79.4 |  |
| O=C(NC1CN(c2ncc(F)cn2)C1)[C@H]1C[C@H](Oc2cc(F)cc3scnc23)C1 [Example 136, (trans)-3-((6-Fluorobenzo[d]thiazol-4-yl)oxy)-N-(1-(5-fluoropyrimidin-2-yl)azetidin-3-yl)cyclobutanecarboxamide] | 10 to 79.4 |  |
| CS(=O)(=O)C1CCC(NC(=O)N2CC(Oc3cccc4scnc34)C2)CC1 (stereo not drawn) [Example 98, 3-(Benzo[d]thiazol-4-yloxy)-N-(4-(methylsulfonyl)cyclohexyl)azetidine-1-carboxamide] |  | ** (pIC50 = 6.0-7.0) |
| COc1ccc(F)cc1O[C@H]1C[C@H](NC(=O)[C@H]2CC[C@H](C(C)(C)O)CC2)C1 [Example 162, (trans)-N-((trans)-3-(5-Fluoro-2-methoxyphenoxy)cyclobutyl)-4-(2-hydroxypropan-2-yl)cyclohexanecarboxamide] | 100 to 1000 |  |
| C[C@]1(O)CC[C@H](NC(=O)[C@H]2C[C@H](Oc3cc(F)ccc3OC(F)F)C2)CC1 [Example 29, (trans)-3-(2-(Difluoromethoxy)-5-fluorophenoxy)-N-((trans)-4-hydroxy-4-methylcyclohexyl)cyclobutanecarboxamide] | 10 to 79.4 |  |
| O=C(Nc1ncco1)[C@H]1C[C@H](Oc2cccc3cccnc23)C1 [Example 208, (trans)-N-(Oxazol-2-yl)-3-(quinolin-8-yloxy)cyclobutanecarboxamide] | 100 to 1000 |  |
| CC(C)(O)[C@H]1CC[C@H](NC(=O)[C@H]2C[C@H](Oc3cc(F)ccc3OC(F)F)C2)CC1 [Example 34, (trans)-3-(2-(Difluoromethoxy)-5-fluorophenoxy)-N-((trans)-4-(2-hydroxypropan-2-yl)cyclohexyl)cyclobutanecarboxamide] | 10 to 79.4 |  |
| O=C(Nc1nccs1)[C@H]1C[C@H](Oc2cc(F)cc3cccnc23)C1 [Example 294, (trans)-3-((6-Fluoroquinolin-8-yl)oxy)-N-(thiazol-2-yl)cyclobutanecarboxamide] | 10 to 79.4 |  |
| O=C(NC1CCN(c2ccccn2)C1)N1CC(Oc2cccc3scnc23)C1 (racemic) [Example 87, Racemic 3-(Benzo[d]thiazol-4-yloxy)-N-(1-(pyridin-2-yl)pyrrolidin-3-yl)azetidine-1-carboxamide] | 100 to 1000 |  |
| N#Cc1ccnc(N2CC(NC(=O)N3CC(Oc4cc(F)cc5scnc45)C3)C2)c1 [Example 134] | 10 to 79.4 |  |

| SMILES | IC50 [nM] | Potency Range (mean pIC50) |
| --- | --- | --- |
| Cn1ccc(NC(=O)N2CC(Oc3cccc4scnc34)C2)n1 [Example 322, 3-(Benzo[d]thiazol-4-yloxy)-N-(1-methyl-1H-pyrazol-3-yl)azetidine-1-carboxamide] | 100 to 1000 |  |
| Cc1cccc(NC(=O)[C@H]2C[C@H](Oc3cccc4cccnc34)C2)n1 [Example 181, (trans)-N-(6-Methylpyridin-2-yl)-3-(quinolin-8-yloxy)cyclobutanecarboxamide] | 10 to 79.4 |  |
| Cc1csc(NC(=O)[C@H]2C[C@H](Oc3cccc4cccnc34)C2)n1 [Example 218, (trans)-N-(4-Methylthiazol-2-yl)-3-(quinolin-8-yloxy)cyclobutanecarboxamide] | 10 to 79.4 |  |
| C[C@]1(O)CC[C@H](NC(=O)N2CC(Oc3cccc4scnc34)C2)CC1 [Example 105, 3-(Benzo[d]thiazol-4-yloxy)-N-((trans)-4-hydroxy-4-methylcyclohexyl)azetidine-1-carboxamide] | 100 to 1000 |  |
| O=C(Nc1nc(CO)cs1)[C@H]1C[C@H](Oc2cccc3cccnc23)C1 [Example 215, (trans)-N-(4-(Hydroxymethyl)thiazol-2-yl)-3-(quinolin-8-yloxy)cyclobutanecarboxamide] | 10 to 79.4 |  |
| O=C(Nc1nc(C(F)(F)F)cs1)[C@H]1C[C@H](Oc2cccc3cccnc23)C1 [Example 201, (trans)-3-(Quinolin-8-yloxy)-N-(4-(trifluoromethyl)thiazol-2-yl)cyclobutanecarboxamide] | 10 to 79.4 |  |
| O=C(NC1CN(c2ccnc(Cl)n2)C1)N1CC(Oc2cc(F)cc3scnc23)C1 [Example 130, N-(1-(2-Chloropyrimidin-4-yl)azetidin-3-yl)-3-((6-fluorobenzo[d]thiazol-4-yl)oxy)azetidine-1-carboxamide] | 10 to 79.4 |  |
| CC(C)c1nnc(NC(=O)N2CC(Oc3cccc4scnc34)C2)o1 [Example 328, 3-(Benzo[d]thiazol-4-yloxy)-N-(5-isopropyl-1,3,4-oxadiazol-2-yl)azetidine-1-carboxamide] | 100 to 1000 |  |
| O=C(Nc1nncs1)[C@H]1C[C@H](Oc2cccc3cccnc23)C1 [Example 216, (trans)-3-(Quinolin-8-yloxy)-N-(1,3,4-thiadiazol-2-yl)cyclobutanecarboxamide] | 10 to 79.4 |  |
| Cn1nc(C2CC2)cc1NC(=O)N1CC(Oc2cccc3scnc23)C1 [Example 314, 3-(Benzo[d]thiazol-4-yloxy)-N-(3-cyclopropyl-1-methyl-1H-pyrazol-5-yl)azetidine-1-carboxamide] | 10 to 79.4 |  |
| O=C(NC1CCN(c2ccccn2)CC1)N1CC(Oc2cccc3scnc23)C1 [Example 88, 3-(Benzo[d]thiazol-4-yloxy)-N-(1-(pyridin-2-yl)piperidin-4-yl)azetidine-1-carboxamide] | 10 to 79.4 |  |
| O=C(NC1CN(c2ccccn2)C1)N1CC(Oc2cccc3scnc23)C1 [Example 54, 3-(Benzo[d]thiazol-4-yloxy)-N-(1-(pyridin-2-yl)azetidin-3-yl)azetidine-1-carboxamide] | 10 to 79.4 |  |
| CC(C)(O)[C@H]1CC[C@H](NC(=O)[C@H]2C[C@H](Oc3cccc(Cl)c3)C2)CC1 [Example 288, (trans)-3-(3-Chlorophenoxy)-N-((trans)-4-(2-hydroxypropan-2-yl)cyclohexyl)cyclobutanecarboxamide] | 100 to 1000 |  |
| CS(=O)(=O)c1ccc(NC(=O)N2CC(Oc3cccc4scnc34)C2)cc1 [Example 306, 3-(Benzo[d]thiazol-4-yloxy)-N-(4-(methylsulfonyl)phenyl)azetidine-1-carboxamide] | 10 to 79.4 |  |
| COc1ccc(F)cc1O[C@H]1C[C@H](C(=O)NC2CCN(c3cc(C#N)ccn3)C2)C1 (mixture of isomers) [Example 145, Racemic (trans)-N-(1-(4-Cyanopyridin-2-yl)pyrrolidin-3-yl)-3-(5-fluoro-2-methoxyphenoxy)cyclobutanecarboxamide] | 10 to 79.4 |  |
| O=C(Nc1nccs1)[C@H]1C[C@H](Oc2cccc3[nH]cnc23)C1 [Example 297, (trans)-3-((1H-Benzo[d]imidazol-4-yl)oxy)-N-(thiazol-2-yl)cyclobutanecarboxamide, di-trifluoroacetic acid salt] | 100 to 1000 |  |
| CCn1nnnc1NC(=O)N1CC(Oc2cccc3scnc23)C1 [Example 325, 3-(Benzo[d]thiazol-4-yloxy)-N-(1-ethyl-1H-tetrazol-5-yl)azetidine-1-carboxamide] | 100 to 1000 |  |
| CC(C)(O)CO[C@H]1CC[C@H](NC(=O)[C@H]2C[C@H](Oc3cccc4cccnc34)C2)CC1 [Example 220, (trans)-N-((trans)-4-(2-Hydroxy-2-methylpropoxy)cyclohexyl)-3-(quinolin-8-yloxy)cyclobutanecarboxamide] | 100 to 1000 |  |
